{"source": "paper PMC8032624", "about": "“Prediction of dose-dependent in vivo acetylcholinesterase inhibition by profenofos in rats and humans using physiologically based kinetic (PBK) modeling-facilitated reverse dosimetry” (Archives of Toxicology, 2021)", "key": {"in vitro": {"test": "in vitro", "assay_type": "in vitro ADME, human", "conditions": "for Vmax / Km: conversion of profenofos to BCP; for Km: pH 7.4", "description": "Incubations of profenofos with rat and human liver microsomes, liver cytosol and plasma were performed to quantify in vitro rates of BCP formation. Conditions were optimized to be linear for metabolite formation with regard to incubation time and microsomal, cytosolic and plasma protein concentration (data not shown). The final incubations were carried out in 100 mM Tris HCl (pH 7.4, 37 °C) containing (final concentrations) 5 mM MgCl2, 2 mM CaCl2 [to stimulate PON1 activity (Carr et al. [2015])], 2 mM NADPH (cofactor to also include CYP-mediated metabolism), enzyme preparation (final concentration 2 mg/ml for human liver microsomes and cytosol and 4.4 mg/ml for human plasma; 0.5 mg/ml for rat microsomes and cytosol and 1.65 mg/ml for rat plasma) and profenofos (at final concentrations ranging from 1 to 100 μM, added from 100 times concentrated stock solutions in DMSO). Control incubations were performed in the absence of microsomes, cytosol or plasma. After 2 min pre-incubation, the reaction was initiated by adding the substrate and mixtures were incubated for 2 min in a 37 °C water bath. The total volume of the incubation mixtures was 200 μl. The reaction was terminated by the addition of 50 μl ice cold ACN and samples were kept on ice. The mixture was centrifuged at 14,000g for 20 min at 4 °C and the supernatant was analyzed using UPLC-UV.\nAll samples from incubations were analyzed using a Waters Acquity UPLC H class system that consisted of a quaternary solvent manager, a sample manager, and a photodiode array (PDA) detector, equipped with a Water Acquity UPLC® BEH C18 column (1.7 μm, 2.1 × 50 mm) and Waters Xbridge UPLC® BEH C18 pre-column (2.5 μM, 2.1 × 5 mm). The temperature of the column was kept at 40 °C and the auto sampler at 10 °C during the UPLC analysis. The mobile phases used for the analysis consisted of (A) 0.1% TFA in nanopure water and (B) 100% ACN. A gradient elution at a flow rate of 0.6 ml/min was applied for the analysis with the initial condition of 100% A:0% B (v/v), changing in a linear way to 0% A:100% B from 0 to 6 min, which was maintained for 30 s, and then changed back to the initial conditions in 30 s, which were maintained for 1 min. The injection volume for each sample was 3.5 μl.\nUnder these conditions, the retention times of profenofos and BCP were 4.76 and 3.37 min, respectively. The amounts of profenofos and BCP were quantified by integrating the peak areas at 237 nm using calibration curves that were prepared using commercially available standards.\nKinetic parameters including the apparent maximum velocity (Vmax) and the apparent Michaelis–Menten constant (Km) for BCP formation were obtained by fitting the data for the substrate concentration-dependent rate of conversion (expressed in nmol/min/mg protein) using GraphPad Prism 5, version 5.04 (San Diego, California, USA) to the standard Michaelis–Menten equation: V=Vmax∗S/(Km+S) in which the S represents the concentration of substrate, expressed in μM, V and Vmax the velocity and the maximum velocity of the reaction, respectively, expressed in nmol/min/mg protein, and Km the apparent Michaelis–Menten constant, expressed in μM. The kinetic parameter values for conversion of profenofos to BCP in the liver microsomes, liver cytosol and plasma were determined. To determine the catalytic efficiency, Vmax was divided by the Km."}, "[1]": {"test": "Control incubations without microsomes, cytosol or plasma (spontaneous hydrolysis)", "assay_type": "physicochemical", "conditions": "100 mM Tris HCl pH 7.4, 37 °C, 2 min, no enzyme preparation", "description": "Incubations of profenofos with rat and human liver microsomes, liver cytosol and plasma were performed to quantify in vitro rates of BCP formation. Conditions were optimized to be linear for metabolite formation with regard to incubation time and microsomal, cytosolic and plasma protein concentration (data not shown). […] The mixture was centrifuged at 14,000g for 20 min at 4 °C and the supernatant was analyzed using UPLC-UV.\nThe conversion of profenofos to BCP was measured in incubations with both rat and human liver microsomes, cytosol and plasma. […] In control incubations, small amounts (max 0.04% of the amount of profenofos added) of BCP were detected, indicating some spontaneous hydrolysis of profenofos in the aqueous environment, which has also been observed in previous studies (Aly and Badawy [1982]). The BCP formation data for microsomes, cytosol and plasma were, therefore, corrected for BCP levels detected in control incubations."}, "rat RBC AChE": {"molecular_target": "T1, rat RBC AChE (Rattus norvegicus, UniProt P37136)", "T1 construct": "contained 0.005 mg/ml erythrocyte ‘ghost’ membrane protein; tissue BioIVT; host or cells: rat blood; erythrocyte 'ghost' membranes (Sprague-Dawley rats)", "T1 sequence (P37136 other isoform, or with tags, fused parts or gaps)": "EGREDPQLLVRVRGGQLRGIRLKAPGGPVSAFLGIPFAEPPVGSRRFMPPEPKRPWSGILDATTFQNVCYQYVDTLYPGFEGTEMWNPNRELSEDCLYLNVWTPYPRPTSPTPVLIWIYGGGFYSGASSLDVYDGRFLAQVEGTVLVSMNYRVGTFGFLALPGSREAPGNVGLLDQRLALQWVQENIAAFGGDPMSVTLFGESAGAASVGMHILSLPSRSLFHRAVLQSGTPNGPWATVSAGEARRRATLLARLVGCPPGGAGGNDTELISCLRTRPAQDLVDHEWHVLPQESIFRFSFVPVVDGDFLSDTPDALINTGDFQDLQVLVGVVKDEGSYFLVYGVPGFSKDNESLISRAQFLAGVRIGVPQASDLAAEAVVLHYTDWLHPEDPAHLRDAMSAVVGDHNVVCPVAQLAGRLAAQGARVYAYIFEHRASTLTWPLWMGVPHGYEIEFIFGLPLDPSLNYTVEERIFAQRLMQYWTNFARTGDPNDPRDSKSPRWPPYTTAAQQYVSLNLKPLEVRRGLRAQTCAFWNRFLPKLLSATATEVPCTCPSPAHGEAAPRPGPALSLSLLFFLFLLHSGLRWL", "test": "In vitro inhibition of rat erythrocyte (RBC) AChE", "assay_type": "biochemical", "description": "To perform reverse dosimetry of in vitro AChE inhibition by profenofos, first the in vitro AChE activity in the absence or presence of increasing concentrations of profenofos was determined. For humans, commercially available recombinant AChE was used. For rats, no commercially available recombinant AChE was available, so rat AChE was obtained from rat blood as described below.\nAChE activity was expressed as enzyme activity (percent of control). The concentration of profenofos that produced a 50% decrease in AChE activity (IC50) was determined from best‐fit plots of the mean (± SD) percentages of inhibition vs. the 10log logarithm of profenofos concentrations using GraphPad Prism 5, version 5.04 (San Diego, California, USA) equation: Y=100/(1+10^(X-LogIC50)).\nRat blood samples were processed according to a method reported by Larsen et al. ([2019]) with a few modifications to isolate the extrinsic membrane bound AChE. Briefly, the blood sample (2 ml) was centrifuged at 3000g for 15 min to separate plasma and cells. […] Aliquots of erythrocyte ‘ghost’ membrane preparations were used for protein measurement using the Pierce™ BCA Protein Assay Kit (Thermofisher) with BSA as standard for quantification (Lowry et al. [1951]), and for AChE activity assessment.\nThe effect of profenofos on rat AChE activity was assessed as described above for human recombinant AChE, with a few modifications. […]"}, "rat": {"tested_on": "rat", "conditions": "oral administration, ref JMPR [2007]; cited from earlier work"}}}
{"smiles": "CCCSP(=O)(OCC)Oc1ccc(Br)cc1Cl", "note": "(stereo not drawn) [profenofos, O-(4-bromo-2-chlorophenyl) O-ethyl S-propyl phosphorothioate]", "values": [{"measurement": "Vmax", "setting": "in vitro; human liver cytosol", "value": "1.1 nmol/min/mg cytosolic protein"}, {"measurement": "Vmax", "setting": "in vitro; human liver microsomes", "value": "1.2 nmol/min/mg microsomal protein"}, {"measurement": "Vmax", "setting": "in vitro; human plasma", "value": "0.99 nmol/min/mg plasma protein"}, {"measurement": "Catalytic efficiency, fold lower for human than rat liver cytosol", "setting": "in vitro; human vs rat liver cytosol", "value": 3.8, "unit": "fold"}, {"measurement": "Km, fold higher for human than rat liver cytosol", "setting": "in vitro; human vs rat liver cytosol", "value": 4.1, "unit": "fold"}, {"measurement": "Vmax, fold higher for human than rat liver cytosol", "setting": "in vitro; human vs rat liver cytosol", "value": 1.1, "unit": "fold"}, {"measurement": "Catalytic efficiency, fold lower in human than rat liver microsomes", "setting": "in vitro; human vs rat liver microsomes", "value": 6.5, "unit": "fold"}, {"measurement": "Km, fold lower in human than rat liver microsomes", "setting": "in vitro; human vs rat liver microsomes", "value": 1.2, "unit": "fold"}, {"measurement": "Vmax, fold lower in human than rat liver microsomes", "setting": "in vitro; human vs rat liver microsomes", "value": 7.7, "unit": "fold"}, {"measurement": "Catalytic efficiency, fold lower for human than rat plasma", "setting": "in vitro; human vs rat plasma", "value": 32, "unit": "fold"}, {"measurement": "Km, fold higher for human than rat plasma", "setting": "in vitro; human vs rat plasma", "value": 44, "unit": "fold"}, {"measurement": "Vmax, fold higher for human than rat plasma", "setting": "in vitro; human vs rat plasma", "value": 1.5, "unit": "fold"}, {"measurement": "Km", "setting": "in vitro; human liver cytosol", "value": 1.4, "unit": "µM"}, {"measurement": "Km", "setting": "in vitro; human liver microsomes", "value": 6.9, "unit": "µM"}, {"measurement": "Km", "setting": "in vitro; human plasma", "value": 158, "unit": "µM"}, {"measurement": "BCP detected in control incubations (spontaneous hydrolysis)", "setting": "[1]", "value": "≤ 0.04 % of the amount of profenofos added"}, {"measurement": "IC50", "setting": "rat RBC AChE", "value": 312, "unit": "nM"}, {"measurement": "LD50", "setting": "rat", "value": "358 to 1178", "unit": "mg/kg"}]}
